This is an account of results in patent US20260116921A1, “PEPTIDE INHIBITORS OF INTERLEUKIN-23 RECEPTOR AND THEIR USE TO TREAT INFLAMMATORY DISEASES” (priority 2018, published 2026).

Data set [1] concerns the target T1, IL-23R (Homo sapiens, UniProt Q5VWK5).
T1 sequence (Q5VWK5 24-629): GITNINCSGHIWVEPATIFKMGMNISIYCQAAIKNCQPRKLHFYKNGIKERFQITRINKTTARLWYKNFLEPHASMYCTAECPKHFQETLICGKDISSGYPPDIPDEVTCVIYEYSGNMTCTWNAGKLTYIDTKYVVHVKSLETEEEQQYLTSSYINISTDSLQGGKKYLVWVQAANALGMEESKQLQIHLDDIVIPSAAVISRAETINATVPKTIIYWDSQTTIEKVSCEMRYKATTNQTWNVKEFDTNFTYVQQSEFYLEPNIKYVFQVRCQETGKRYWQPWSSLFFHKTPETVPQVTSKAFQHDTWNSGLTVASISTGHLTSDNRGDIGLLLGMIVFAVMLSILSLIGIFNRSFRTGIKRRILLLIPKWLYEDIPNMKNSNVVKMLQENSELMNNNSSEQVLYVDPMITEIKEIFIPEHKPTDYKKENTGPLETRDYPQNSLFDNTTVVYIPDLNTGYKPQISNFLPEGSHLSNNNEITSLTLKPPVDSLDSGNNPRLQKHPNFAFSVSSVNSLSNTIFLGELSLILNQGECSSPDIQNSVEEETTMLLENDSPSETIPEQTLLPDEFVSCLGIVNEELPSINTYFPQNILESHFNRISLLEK
In words: DB cells IL23R pSTAT3 cell assay (pStat3 HTRF). It is filed as cell-based. Summed up: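 DB cells (5×10E5/well, RPMI-1640 + 10% FBS) stimulated with 0.5 nM final IL-23 plus serially diluted test peptides for 30 min at 37 °C, 5% CO2. Phospho-STAT3 (Tyr705) in lysates measured by HTRF using a two-plate protocol.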
A general note: TR-FRET usually uses a lanthanide donor and a delayed reading to cut background.

A short description of data set [2]: in vitro. The following applies: human, 20% fecal homogenate (supernatant), anaerobic, pH 6.8.
Data set [3] can be described thus: in vitro. As to conditions: cynomolgus monkey, 20% fecal homogenate (supernatant), anaerobic, pH 6.8.
Protocol: Fecal homogenate (20%) was prepared by adding 4 mL of growth medium (1 liter contains 2 g peptone water powder, 2 g yeast extract, 0.1 g NaCl, 0.04 g KH2PO4, 0.01 g CaCl2·6H2O, 0.01 g MgSO4·7H2O, 2 mL Tween 80, 0.5 g bile salts, 0.5 g L-cysteine HCl, 2 g NaHCO3, and 10 μL Vitamin K, pH adjusted to 6.8, and sterilized by filtration through a 0.22 μm filter) to every gram of feces (pooled freshly collected human or cynomolgus monkey feces). The suspension was vortexed to break up large clumps, and homogenized using a bead mill homogenizer. Centrifuged the homogenate at 2800×g for 15 min. The supernatant is taken out and used for incubations. DMSO stocks (10 mM) were first prepared for the test compounds. Incubations were performed in an anaerobic chamber conditioned at 37° C. Aliquots of the DMSO solutions were dosed into 1.0 mL aliquots of 20% fecal homogenate, which are pre-warmed to 37° C. The final test compound concentration was 20 μM. At each timepoint (0, 20 min, 1, 3, 6, or 24 hours), 100 μL aliquot of each incubation mixture is taken out and added to separate tubes containing 300 μL of 50% acetonitrile/50% methanol and an internal standard to terminate the reaction. Samples were taken out of the anaerobic chamber and stored at 4° C. until the end of the experiment. After the final timepoint is sampled, the tubes were mixed and then centrifuged at 3,000 rpm for 10 minutes. Aliquots of the supernatant were removed, diluted 1:1 into distilled water containing 0.1% formic acid, and analyzed by LC/MS/MS. Percent remaining at each timepoint was calculated based on the peak area response ratio of test to compound to internal standard. Time 0 was set to 100%, and all later timepoints were calculated relative to time 0. Half-lives were calculated by fitting to a first-order exponential decay equation using Graphpad or Excel.
The nature of data set [4]: in vitro. The following applies: both, SD, rat, plasma (EDTA).
Protocol: Peptides of interest (20 μM) were incubated with pre-warmed rat plasma (SD rat, mixed gender pooled, EDTA, filtered through 0.22 μm, BioreclamationIVT) at 37° C. […] Quenched samples were stored at 4° C. until the end of the experiment and centrifuged at 4,000 rpm for 10 minutes. The supernatant were diluted 1:1 with deionized water and analyzed using LC-MS. Percentage remaining at each time point was calculated based on the peak area ratio (analyte over internal standard) relative to the initial level at time zero. Half-lives were calculated by fitting to a first-order exponential decay equation using GraphPad.
Setting [5] is: Table E3, DB cells, IL-23 0.5 nM, 30 minutes at 37° C., read-out: pStat3 HTRF (IC50).

SMILES strings stand for the structures. Read-outs that look alike come from different tables or passages of the source. Numbered stars: 1 amine (or outer) side, 2 acyl side, 3 side chain; on linkers, the order of the positions; unused ones are H or OH. Bridge positions count the residues as written; N and C are the ends. Square brackets hold non-standard residues; d marks the D form. Peptide text beside a SMILES is read from it. Trp(7-Me) = Cc1cccc2c(C[C@H](N)C(=O)O)c[nH]c12; Abu(4-yl) = O=C([C@H](CC[*:3])N[*:1])[*:2]; 2Nal = N[C@@H](Cc1ccc2ccccc2c1)C(=O)O; AEF = NCCOc1ccc(C[C@H](N)C(=O)O)cc1; Cit = NC(=O)NCCC[C@H](N)C(=O)O; Pen = CC(C)(S)[C@H](N)C(=O)O; αMeK = C[C@](N)(CCCCN)C(=O)O

Take `CC(=O)NCCCC[C@H](NC(=O)[C@](C)(CCCCN)NC(=O)[C@H](Cc1ccc2ccccc2c1)NC(=O)[C@H](Cc1ccc(OCCN)cc1)NC(=O)[C@H]1NC(=O)[C@H](CCC(N)=O)NC(=O)[C@H](Cc2c[nH]c3c(C)cccc23)NC(=O)[C@H]([C@@H](C)O)NC(=O)[C@H](CCC(N)=O)NC(=O)[C@@H](NC(C)=O)C(C)(C)SSC1(C)C)C(=O)N[C@@H](CC(N)=O)C(=O)NCCC(N)=O` [compound 237]: in data set [1] (setting [5]), the IC50 was 1 to 10 nM. Moreover, the half-life at 20 μM was > 1440 min in data set [2], 360 min in data set [3] and > 1440 min in data set [4].
With `CC(=O)NCCCC[C@@H]1NC(=O)[C@H](Cc2c[nH]c3c(C)cccc23)NC(=O)[C@H]([C@@H](C)O)NC(=O)[C@H](CC(N)=O)NC(=O)[C@@H](NC(C)=O)C(C)(C)SSC(C)(C)[C@@H](C(=O)N[C@@H](Cc2ccc(OCCN)cc2)C(=O)N[C@@H](Cc2ccc3ccccc3c2)C(=O)N[C@@](C)(CCCCN)C(=O)N[C@@H](CCCCNC(C)=O)C(=O)N[C@@H](CC(N)=O)C(=O)N(C)[C@@H](CCCNC(=N)N)C(N)=O)NC1=O` [compound 246], the IC50 in data set [1] (setting [5]) lay within 1 to 10 nM. Moreover, the half-life at 20 μM in data set [2], in data set [3] and in data set [4] was > 1440 min each time.
Take `CC(=O)NCCCC[C@H](NC(=O)[C@](C)(CCCCN)NC(=O)[C@H](Cc1ccc2ccccc2c1)NC(=O)[C@H](Cc1ccc(OCCN)cc1)NC(=O)[C@H]1NC(=O)[C@H](CCCNC(N)=O)NC(=O)[C@H](Cc2c[nH]c3c(C)cccc23)NC(=O)[C@H]([C@@H](C)O)NC(=O)[C@H](CC(N)=O)NC(=O)[C@@H](NC(C)=O)C(C)(C)SSC1(C)C)C(=O)N[C@@H](CC(N)=O)C(=O)N[C@@H](CO)C(N)=O` [compound 260] (Ac-[Pen]NT[Trp(7-Me)][Cit][Pen][AEF][2Nal][αMeK]K(Ac)NS-NH2; disulfide 1-6): in data set [1] (setting [5]), the IC50 is < 1 nM. Besides, the half-life at 20 μM in data set [2] was 900 min; in data set [3], 180 min; in data set [4], > 1440 min.
Turning to `CC(=O)NCCCC[C@H](NC(=O)[C@](C)(CC(C)C)NC(=O)[C@H](Cc1ccc2ccccc2c1)NC(=O)[C@H](Cc1ccc(OCCN)cc1)NC(=O)[C@H]1NC(=O)[C@H](CCC(N)=O)NC(=O)[C@H](Cc2c[nH]c3c(C)cccc23)NC(=O)[C@H]([C@@H](C)O)NC(=O)[C@H](CC(N)=O)NC(=O)[C@@H](NC(C)=O)C(C)(C)SSC1(C)C)C(=O)N[C@H](C)C(=O)NCCC(N)=O` [compound 209], the IC50 in data set [1] (setting [5]) fell in the range of 1 to 10 nM. The half-life at 20 μM was > 1440 min in data set [2], > 1440 min in data set [3] and 60 min in data set [4].
As to `CC(=O)NCCCC[C@H](NC(=O)C1(NC(=O)[C@H](Cc2ccc3ccccc3c2)NC(=O)[C@H](Cc2ccc(OCCN)cc2)NC(=O)[C@H]2NC(=O)[C@H](CCC(N)=O)NC(=O)[C@H](Cc3c[nH]c4c(C)cccc34)NC(=O)[C@H]([C@@H](C)O)NC(=O)[C@H](CC(N)=O)NC(=O)[C@@H](NC(C)=O)C(C)(C)SSC2(C)C)CCC1)C(=O)N[C@@H](CC(N)=O)C(=O)NCCC(N)=O` [compound 277], in data set [1] (setting [5]), the IC50 was < 1 nM. In addition, the half-life at 20 μM in data set [3] was 300 min; in data set [4], 360 min.
As for `CC(=O)NCCCC[C@H](NC(=O)[C@](C)(CC(C)C)NC(=O)[C@H](Cc1ccc2ccccc2c1)NC(=O)[C@H](Cc1ccc(OCCN)cc1)NC(=O)[C@H]1NC(=O)[C@H](CCC(N)=O)NC(=O)[C@H](Cc2c[nH]c3c(C)cccc23)NC(=O)[C@H]([C@@H](C)O)NC(=O)[C@H](CC(N)=O)NC(=O)[C@@H](NC(C)=O)C(C)(C)SSC1(C)C)C(=O)N[C@H](Cc1ccccc1)C(=O)NCCC(N)=O` [compound 213], the half-inhibitory concentration (IC50) in data set [1] (setting [5]) lay in the range of 10 to 100 nM. Also, the half-life at 20 μM is > 1440 min in data set [2], > 1440 min in data set [3] and < 18 min in data set [4].
Consider `CC(=O)NCCCC[C@H](NC(=O)[C@](C)(CC(C)C)NC(=O)[C@H](Cc1ccc2ccccc2c1)NC(=O)[C@H](Cc1ccc(OCCN)cc1)NC(=O)[C@H]1NC(=O)[C@H](CCC(N)=O)NC(=O)[C@H](Cc2c[nH]c3c(C)cccc23)NC(=O)[C@H]([C@@H](C)O)NC(=O)[C@H](CC(N)=O)NC(=O)[C@@H](NC(C)=O)C(C)(C)SSC1(C)C)C(=O)N1CCC[C@@H]1C(=O)NCCC(N)=O` [compound 212], for which the half-inhibitory concentration (IC50) in data set [1] (setting [5]) lay in the range of 10 to 100 nM. Also, the half-life at 20 μM in data set [2] and in data set [3] was > 1440 min in each case.
On to `COc1cccc2[nH]cc(C[C@@H]3NC(=O)[C@H]([C@@H](C)O)NC(=O)[C@H](CC(N)=O)NC(=O)[C@@H](NC(C)=O)C(C)(C)SSC(C)(C)[C@@H](C(=O)N[C@@H](Cc4ccc(OCCN)cc4)C(=O)N[C@@H](Cc4ccc5ccccc5c4)C(=O)N[C@@](C)(CCCCN)C(=O)N[C@@H](CCCCNC(C)=O)C(=O)N[C@@H](CC(N)=O)C(=O)NCCC(N)=O)NC(=O)[C@H](CCC(N)=O)NC3=O)c12` [compound 229], for which the IC50 in data set [1] (setting [5]) is 10 to 100 nM. Moreover, the half-life at 20 μM in data set [2] is > 1440 min; in data set [3], 420 min.
Taken in the same sequence, the figures for `CC(=O)NCCCC[C@@H]1NC(=O)[C@H](Cc2c[nH]c3c(C)cccc23)NC(=O)[C@H]([C@@H](C)O)NC(=O)[C@H](CCC(N)=O)NC(=O)[C@@H](NC(=O)[C@@H](CCCNC(=N)N)NC(C)=O)CCSC[C@@H](C(=O)N[C@@H](Cc2ccc(OCCN)cc2)C(=O)N[C@@H](Cc2ccc3ccccc3c2)C(=O)N[C@@](C)(CCCCN)C(=O)N[C@@H](CCCCNC(C)=O)C(=O)N[C@@H](CC(N)=O)C(N)=O)NC1=O` [compound 326] (Ac-[dR][Abu(4-yl)]QT[Trp(7-Me)]K(Ac)C[AEF][2Nal][αMeK]K(Ac)N-NH2; thioether 2-7) were 10 to 100 nM, 660 min and 660 min.
As to `CC(=O)NCCCC[C@H](NC(=O)[C@](C)(CCCCN)NC(=O)[C@H](Cc1ccc2ccccc2c1)NC(=O)[C@H](Cc1ccc(OCCN)cc1)NC(=O)[C@H]1NC(=O)[C@H](CCC(N)=O)NC(=O)[C@H](Cc2c[nH]c3cc(C)ccc23)NC(=O)[C@H]([C@@H](C)O)NC(=O)[C@H](CC(N)=O)NC(=O)[C@@H](NC(C)=O)C(C)(C)SSC1(C)C)C(=O)N[C@@H](CC(N)=O)C(=O)NCCC(N)=O` [compound 230], in data set [1] (setting [5]), the half-inhibitory concentration (IC50) was 10 to 100 nM. Further, the half-life at 20 μM in data set [2] is > 1440 min; in data set [3] it was 600 min.
Take `CC(=O)N[C@H](CCCNC(=N)N)C(=O)N[C@H]1CCSC[C@@H](C(=O)N[C@@H](Cc2ccc(OCCN)cc2)C(=O)N[C@@H](Cc2ccc3ccccc3c2)C(=O)NC2(C(=O)N[C@@H](CCC(=O)O)C(=O)N[C@@H](CC(N)=O)C(=O)N[C@@H](CC(N)=O)C(N)=O)CCOCC2)NC(=O)[C@H](CCC(N)=O)NC(=O)[C@H](Cc2c[nH]c3c(C)cccc23)NC(=O)[C@H]([C@@H](C)O)NC(=O)[C@H](CCC(N)=O)NC1=O` [compound 27]: the IC50 in data set [1] was < 1 nM. The half-life at 20 μM in data set [3] is 180 min.
On to `CC(=O)NCCCC[C@H](NC(=O)[C@](C)(CCCCN)NC(=O)[C@H](Cc1ccc2ccccc2c1)NC(=O)[C@H](Cc1ccc(OCCN)cc1)NC(=O)[C@H]1NC(=O)[C@H](CCC(N)=O)NC(=O)[C@H](Cc2c[nH]c3cccc(C)c23)NC(=O)[C@H]([C@@H](C)O)NC(=O)[C@H](CC(N)=O)NC(=O)[C@@H](NC(C)=O)C(C)(C)SSC1(C)C)C(=O)N[C@@H](CC(N)=O)C(=O)NCCC(N)=O` [compound 231], for which, in data set [1] (setting [5]), the concentration for half-maximal inhibition (IC50) is 1 to 10 nM. The results for the half-life at 20 μM in data set [2] and in data set [3] were > 1440 min and 900 min, respectively.
As to `CC(=O)NCCCC[C@H](NC(=O)[C@](C)(CC(C)C)NC(=O)[C@H](Cc1ccc2ccccc2c1)NC(=O)[C@H](Cc1ccc(OCCN)cc1)NC(=O)[C@H]1NC(=O)[C@H](CCC(N)=O)NC(=O)[C@H](Cc2c[nH]c3c(C)cccc23)NC(=O)[C@H]([C@@H](C)O)NC(=O)[C@H](CC(N)=O)NC(=O)[C@@H](NC(C)=O)C(C)(C)SSC1(C)C)C(=O)N[C@H](CO)C(=O)NCCC(N)=O` [compound 222], the half-inhibitory concentration (IC50) in data set [1] (setting [5]) was in the range of 1 to 10 nM. The half-life at 20 μM in data set [2] and in data set [3] was > 1440 min throughout.
In the case of `CC(=O)NCCCC[C@H](NC(=O)[C@](C)(CC(C)C)NC(=O)[C@H](Cc1ccc2ccccc2c1)NC(=O)[C@H](Cc1ccc(OCCN)cc1)NC(=O)[C@H]1NC(=O)[C@H](CCC(N)=O)NC(=O)[C@H](Cc2c[nH]c3ccc(O)cc23)NC(=O)[C@H]([C@@H](C)O)NC(=O)[C@H](CC(N)=O)NC(=O)[C@@H](NC(C)=O)C(C)(C)SSC1(C)C)C(=O)N[C@@H](CC(N)=O)C(=O)N[C@@H](CC(N)=O)C(N)=O` [compound 10], the IC50 in data set [1] was > 100 nM.

As a reminder, the IC50 is the concentration needed to halve the response being measured. In general, half-life refers to the time needed for the level to fall by half in the phase considered. The low end stands for fast loss, the high end for slow loss.
